Assay results as given in patent US20080020368A1, “Method and apparatus for exposing cells to different concentrations of analytes or drugs” (priority 2006, published 2008).

Test system: HL60 cells
Test: On-chip TMR study: laser-enhanced TMR fluorescence response of docked cells in tapered microchannel device
Type: cell-based
Conditions: Homo sapiens, HL-60, light or radiation study; HL60 cells docked on upper sandbag, on-chip serial dilution of TMR, fast Helium-Neon laser irradiation (~70 ms/ROI) for 3 more minutes; 50% intensity; read-out: EC50 of TMR concentration required to trigger the enhanced fluorescence response
Text: It was the highly compact design of this microdevice that facilitated the comparative study between large amounts of cells on two sandbag components. […] However, only a region of interest (ROI) on the upper sandbag was subjected to fast laser irradiation (˜70 ms/ROI of Helium-Neon laser) for 3 more minutes. A confocal image of both sandbags after the fast irradiation was developed.
Furthermore, despite the large ROI coverage over the upper sandbag, the enhanced response was evidenced for the cells incubated at higher TMR concentration near the sandbag rear. Therefore, the conclusion is that the enhanced response was at least related to 1) concentration of TMR and 2) the amount of laser irradiation.
Referring to FIG. 30, photomicrographs are shown one on top of the other, with the top photomicrograph showing cells docked on both sandbags but only those encircled by the black dotted framework are subjected to laser irradiation. […] The purpose of these photomicrographs is to show the power of the microchip to perform rapid analysis and retrieve effective concentration of a photodynamic therapy drug candidate that is sensitive to light irradiation.
The response profiles of cells docked on the upper and lower sandbags of FIG. 30 are plotted in FIG. 31. […] Note further that there is an average peak in intensity at a 3.73 μM at 50% intensity. […]

## CN(C)c1ccc2c(-c3ccc(CCl)cc3)c3ccc(=[N+](C)C)cc-3oc2c1 [TMR, Tetramethylrosamine]
  EC50: 3.73 µM
